Measurements published in paper PMC5376326, “Inhibition of ANO1 by luteolin and its cytotoxicity in human prostate cancer PC-3 cells” (PLoS ONE, 2017).
Where “and” joins values, the source holds several entries; their conditions need not be identical. Equal values may be shown once.

Legend:
human ANO1 (abc) = molecular target: T1, human ANO1 (abc) (Homo sapiens, UniProt Q5XXA6, DEL476-501); experiment: YFP fluorescence quenching assay (iodide influx) in FRT cells expressing human ANO1; format: cell-based; settings: for IC50: FRT cells expressing ANO1 and YFP, ATP activation, mean ± S.E., n = 3, read-out: IC50, ANO1 inhibition (YFP fluorescence quenching)
T1 sequence (Q5XXA6 with tags, fused parts or gaps isoform Q5XXA6-5 DEL539-564): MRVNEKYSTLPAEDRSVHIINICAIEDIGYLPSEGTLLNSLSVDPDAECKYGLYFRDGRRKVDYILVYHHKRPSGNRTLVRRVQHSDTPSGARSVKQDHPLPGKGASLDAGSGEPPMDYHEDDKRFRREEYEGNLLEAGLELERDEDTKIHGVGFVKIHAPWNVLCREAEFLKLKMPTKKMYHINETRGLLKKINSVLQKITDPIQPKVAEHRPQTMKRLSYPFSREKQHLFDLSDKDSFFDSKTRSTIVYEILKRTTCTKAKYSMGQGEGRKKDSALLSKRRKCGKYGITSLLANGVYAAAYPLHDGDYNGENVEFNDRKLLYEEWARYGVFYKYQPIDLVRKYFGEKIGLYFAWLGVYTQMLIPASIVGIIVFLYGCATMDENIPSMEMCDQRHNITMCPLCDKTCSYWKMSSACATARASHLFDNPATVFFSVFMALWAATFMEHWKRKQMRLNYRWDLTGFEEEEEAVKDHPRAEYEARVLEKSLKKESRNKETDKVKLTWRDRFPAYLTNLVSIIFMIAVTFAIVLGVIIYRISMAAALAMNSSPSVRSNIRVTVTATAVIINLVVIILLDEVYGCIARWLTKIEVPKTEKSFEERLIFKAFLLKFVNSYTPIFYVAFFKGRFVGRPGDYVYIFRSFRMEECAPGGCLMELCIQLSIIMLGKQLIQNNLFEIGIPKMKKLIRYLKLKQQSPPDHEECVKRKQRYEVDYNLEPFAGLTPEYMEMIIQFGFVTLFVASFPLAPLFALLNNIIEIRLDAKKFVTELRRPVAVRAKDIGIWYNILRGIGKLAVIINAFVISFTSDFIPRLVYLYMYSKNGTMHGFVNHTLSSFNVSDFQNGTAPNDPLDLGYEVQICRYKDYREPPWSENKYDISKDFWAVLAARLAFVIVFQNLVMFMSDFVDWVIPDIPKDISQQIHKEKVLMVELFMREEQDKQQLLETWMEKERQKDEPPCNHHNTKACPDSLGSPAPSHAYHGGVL
Description: Fisher rat thyroid (FRT) cells were stably transfected with human ANO1 (abc) or mouse ANO2 and the halide sensor YFP as described in previous study. FRT cells were cultured in Coon`s modified F12 medium with 10% FBS, 2 mM L-glutamine, 100 units/ml penicillin and 100 μg/ml streptomycin at 37°C and 5% CO2. PC-3 cells were grown in RPMI 1640 medium supplemented with 10% FBS, 100 units/ml penicillin and 100 μg/ml streptomycin at 37°C and 5% CO2. There were populations of PC-3 cells with high and low expression of ANO1. To separate high and low levels of ANO1 expressing PC-3 cells, cells were stably transfected with the halide sensor YFP-H148Q/I152L/F46L and then the cells were plated on 96 well plates at 1 cell per well. After two weeks of incubation, high and low levels of ANO1 expressing PC-3 cells were separated by YFP quenching assay. ANO1 was activated by 100 μM ATP.
ANO1 and YFP expressing FRT cells were plated in 96-well black-walled microplates (Corning Inc., Corning, NY) at a density of 20,000 cells per well. Assays were done using FLUOstar Omega microplate reader (BMG Labtech, Ortenberg, Germany) and MARS Data Analysis Software (BMG Labtech) as described in our previous study. Briefly, each well of 96-well plate was washed 3 times in PBS (200 μL/wash) and test compounds were added to each well at 25 μM final concentration. After 10 minutes incubation at 37°C, 96-well plates were transferred to the plate reader for fluorescence assay. Each well was assayed individually for ANO1-mediated I^- influx by monitoring YFP fluorescence continuously (400 ms per point) for 2 s (baseline), then 140 mM I^- solution containing 200 μM ATP was added at 2 s and then YFP fluorescence was recorded for 6 s. Initial iodide influx rate was determined from the initial slope of fluorescence decrease, by nonlinear regression, following infusion of iodide with ATP.

ANO1 [1] = molecular target: T2, ANO1 (Homo sapiens, UniProt Q5XXA6, DEL476-501); experiment: Apical membrane (short-circuit) current in ANO1-expressing FRT cells; format: cell-based; settings: for Block of ANO1 chloride channel current: pretreated 20 min, 100 μM ATP, FRT-ANO1 cells
T2 sequence (Q5XXA6 with tags, fused parts or gaps isoform Q5XXA6-5 DEL539-564): T1 sequence (Q5XXA6 with tags, fused parts or gaps isoform Q5XXA6-5 DEL539-564)
Description: Snapwell inserts containing ANO1-expressing FRT cells were mounted in Ussing chambers (Physiologic Instruments, San Diego, CA). The basolateral bath was filled with HCO3^--buffered solution and the apical bath was filled with a half-Cl^- solution. The basolateral membrane was permeabilized with 250 μg/mL amphotericin B. The cells were bathed for a 20 min stabilization period and aerated with 95% O2 / 5%CO2 at 37°C. Luteolin and kaempferol were applied to the apical and basolateral bath solution and then ATP was added to the apical bath solution to induce intracellular calcium increase. Apical membrane currents were measured with an EVC4000 Multi-Channel V/I Clamp (World Precision Instruments, Sarasota, FL) and recorded using PowerLab 4/35 (AD Instruments, Castle Hill, Australia). Data were collected and analyzed with ADInstruments acquisition software Labchart Pro 7 software. The sampling rate was 4 Hz.

ANO1 [2] = experiment: Immunoblot of ANO1 protein levels in PC-3 cells; format: cell-based, human
Description: Immunoblotting was performed as described previously. FRT and PC-3 cells were lysed with cell lysis buffer (50 mM Tris-HCl (pH 7.4), 1% Nonidet P-40, 0.25% sodium deoxycholate, 150 mM NaCl, 1 mM EDTA, 1 mM Na3VO4, and protease inhibitor mixture). Whole cell lysates were centrifuged at 15,000 g for 10 min at 4°C to remove the cell debris, and supernatant protein was separated by 4–12% Tris-glycine precast gel (KOMA BIOTECH, Seoul, Korea) and then transferred onto PVDF membrane (Millipore, Billerica, MA). Membrane was blocked with 5% non-fat skim milk in Tris-buffered saline including 0.1% Tween 20 (TBST) for 1 hour at room temperature. The membrane was then incubated overnight with primary ANO1 antibody (1:500 dilution, ab64085; Abcam Inc., Cambridge, MA). After washing three times with TBST, the blot was further incubated for 60 min at room temperature with an anti-rabbit secondary antibody (Santa Cruz Biotechnology, CA). The membrane was then washed three times with TBST and then visualized using the ECL Plus western blotting detection system (GE Healthcare, NJ).

Block of ANO1 chloride channel current (ANO1 [1]; 10 μM) [%]	Block of ANO1 chloride channel current (ANO1 [1]; 30 μM) [%]	Block of ANO1 chloride channel current (ANO1 [1]; 100 μM) [%]	SMILES	IC50 (human ANO1 (abc))	Effect on ANO1 protein levels (ANO1 [2]; PC-3 cells expressing high levels of ANO1, 24 hour, indicated concentrations)	Block of ATP-induced ANO1 activation (YFP) (human ANO1 (abc); 100 μM)	Block of PAR2-AP-triggered ANO1 activation (ANO1 [1]; 100 μM, 20 min pretreatment, PAR2-AP 50 μM)	Inhibition of ATP-induced ANO1 activation (apical current) (ANO1 [1]; 100 μM, ATP 100 μM)	IC50 (ANO1 [1]; FRT cells expressing ANO1, activated by 100 μM ATP, read-out: IC50, ANO1 chloride current (apical membrane current))	Reversibility of ANO1 inhibition (ANO1 [1]; after washing 3 times for 5 min each, re-activation by 50 μM PAR2-AP)	Decrease of ANO1 protein levels (ANO1 [2]; 10 μM, 24 hour, PC-3 cells expressing high levels of ANO1) [%]	Decrease of ANO1 protein levels (ANO1 [2]; 30 μM, 24 hour, PC-3 cells expressing high levels of ANO1) [%]	Time-dependent change of ANO1 protein levels (ANO1 [2]; 30 μM, PC-3 cells)
36.2 ± 3.0	55.0 ± 4.1	89.3 ± 2.0	O=c1c(O)c(-c2ccc(O)cc2)oc2cc(O)cc(O)c12 [Kaempferol]	14.55 ± 0.03 µM	did not affect								
			O=c1cc(-c2ccc(O)c(O)c2)oc2cc(O)cc(O)c12 [luteolin]	9.37 µM and ~9.4 µM		almost completely blocked	almost completely blocked	almost completely inhibited	9.8 µM and 9.77 µM and ~10 µM	reversibly inhibited	41.2 ± 1.5	63.1 ± 5.7	significantly decreased in a time-dependent manner
